Laboratory results: ChEMBL document CHEMBL4651402, “Screening of ~5500 FDA-approved drugs and clinical candidates for anti-SARS-CoV-2 activity” (2021)

System: SARS-CoV-2
Test: microbe, parasite or virus in culture
Conditions: Severe acute respiratory syndrome coronavirus 2, Vero C1008, 48 h

Row | Compound | IC50 | IC50 (read-out: pIC50 (converted))
1 | C[C@]12CCC3C(CCC4=C(Cl)C(=O)CC[C@@]43C)C1CCC2O (stereo partly specified) | > 20 µM | > 20 µM
2 | CC(C)C(C)/C=C/C(C)C1CCC2C3=CC=C4CC(O)CCC4(C)[C@H]3CCC21C (stereo partly specified) | > 20 µM | > 20 µM
3 | CC(=O)N(CC(O)CO)c1c(I)c(C(=O)NCC(O)CO)c(I)c(C(=O)NCC(O)CO)c1I (stereo unspecified) [IOHEXOL] | > 20 µM | > 20 µM
4 | CC1CC[C@@]2(OC1)OC1CC3C4CC[C@H]5CC(O)CCC5(C)C4CC(=O)C3(C)C1C2C (stereo partly specified) | > 20 µM | > 20 µM
5 | OC[C@H]1NC[C@@H](O)[C@@H](O)[C@@H]1O [DEOXYMANNOJIRIMYCIN] | > 20 µM | > 20 µM
6 | CCCN1CCCC2Cc3nc(N)ncc3CC21 (stereo unspecified) | > 20 µM | > 20 µM
7 | Cc1ccc(C)c(OCCCC(C)(C)C(=O)O)c1 [GEMFIBROZIL] | > 20 µM | > 20 µM
8 | CCOC(=O)C1=C(C)NC(C)=C(C(=O)OC)C1c1cccc([N+](=O)[O-])c1 (stereo unspecified) [NITRENDIPINE] | > 20 µM | > 20 µM
9 | O=c1[nH]c2cc(-n3ccnc3)c([N+](=O)[O-])cc2[nH]c1=O [YM-90K] | > 20 µM | > 20 µM
10 | C#C[C@]1(OC(C)=O)CC[C@H]2[C@@H]3CCC4=C[C@@H](OC(C)=O)CC[C@@H]4[C@H]3CC[C@@]21C [ETHYNODIOL DIACETATE] | > 20 µM | > 20 µM
11 | CN1[C@@H]2CC[C@H]1C[C@@H](OC(=O)c1cc(Cl)cc(Cl)c1)C2 [BEMESETRON] | > 20 µM | > 20 µM
12 | COc1cc2nccc(Oc3ccc(NC(=O)NC4CC4)c(Cl)c3)c2cc1C(N)=O [LENVATINIB] | > 20 µM | > 20 µM
13 | CC(C)[C@H](N)C(=O)OCCOCn1cnc2c(=O)nc(N)[nH]c21 [VALACYCLOVIR] | > 20 µM | > 20 µM
14 | Cc1cccc(Nc2ccccc2C(=O)O)c1C [MEFENAMIC ACID] | > 20 µM | > 20 µM
15 | CC1=C(CC(=O)O)c2cc(F)ccc2/C1=C\c1ccc(S(C)(=O)=O)cc1 [EXISULIND] | > 20 µM | > 20 µM
16 | CCCCC1C(=O)N(c2ccccc2)N(c2ccccc2)C1=O [PHENYLBUTAZONE] | > 20 µM | > 20 µM
17 | O=C(Cn1c2ccccc2c2c(N3CCCC3)nc(N3CCCC3)nc21)N1CCCC1 | > 20 µM | > 20 µM
18 | CC1=CCCC2C1(C)CCC(C)C2(C)Cc1cc(O)ccc1O (stereo unspecified) | > 20 µM | > 20 µM
19 | COC(=O)Nc1nc2cc(SC(C)C)ccc2[nH]1 | > 20 µM | > 20 µM

Row | Compound | IC50 | IC50 (read-out: pIC50 (converted))
20 | COCC1CN=C(c2ccccc2Cl)c2cc(Br)ccc2N1C (stereo unspecified) [METACLAZEPAM] | > 20 µM | > 20 µM
21 | Nc1cccc2c1CN(C1CCC(=O)NC1=O)C2=O (stereo unspecified) [LENALIDOMIDE] | > 20 µM | > 20 µM
22 | CN1C(=O)/C(=N/NC(N)=S)c2ccccc21 | > 20 µM | > 20 µM
23 | Nc1cc(Cl)c(N=C2NCCN2)c(Cl)c1 [APRACLONIDINE] | > 20 µM | > 20 µM
24 | N#Cc1cc(CN2CCC(Nc3ncnc4sc(Cl)cc34)CC2)ccc1F [PRX-08066 FREE BASE] | > 20 µM | > 20 µM
25 | CC1CC2C3CC(F)C4=CC(=O)C=CC4(C)C3C(O)CC2(C)C1C(=O)CO (stereo unspecified) | > 20 µM | > 20 µM
26 | NCCCCCCN | > 20 µM | > 20 µM
27 | CCC(C(=O)OCCN(CC)CC)c1ccccc1 (stereo unspecified) [BUTETAMATE] | > 20 µM | > 20 µM
28 | CCN(C(=O)c1c(O)c2c(Cl)cccc2n(C)c1=O)c1ccccc1 [LAQUINIMOD] | > 20 µM | > 20 µM
29 | O=C(O)C1CC(O)CN1 (stereo unspecified) | > 20 µM | > 20 µM
30 | CC12CCC3C(CC[C@H]4Cc5n[nH]cc5C[C@]34C)C1CC[C@]2(C)O (stereo partly specified) | > 20 µM | > 20 µM
31 | C[C@H]1CN([C@H]2CC[C@](C#N)(c3ccc(F)cc3)CC2)CC[C@@]1(C(=O)O)c1ccccc1 | > 20 µM | > 20 µM
32 | O=C(O)Cc1nn(Cc2ccc(Br)cc2F)c(=O)c2ccccc12 [PONALRESTAT] | > 20 µM | > 20 µM
33 | CN(C)[C@@H]1C(O)=C(C(N)=O)C(=O)[C@@]2(O)C(O)=C3C(=O)c4c(O)ccc(Cl)c4[C@@](C)(O)C3C[C@@H]12 (stereo partly specified) | > 20 µM | > 20 µM
34 | COc1cc(NC(C)CCCN)c2ncccc2c1 (stereo unspecified) [PRIMAQUINE] | > 20 µM | > 20 µM
35 | CCOP(=O)(O)OCC [DIETHYL HYDROGEN PHOSPHATE] | > 20 µM | > 20 µM
36 | CN(C)N=Nc1ccc(C(=O)O)cc1 | > 20 µM | > 20 µM
37 | NS(=O)(=O)c1ccc(N2CCN(CC[C@H]3OCCc4ccccc43)CC2)cc1 | > 20 µM | > 20 µM
38 | O=c1oc2cc(O)ccc2c2ccc(O)cc12 | > 20 µM | > 20 µM
